Here are results for three molecules from US20220241412A1, “COMBINATION THERAPIES USING CDK INHIBITORS” (Pfizer Inc., priority 2019, published 2022).

Common to all, as to format: in vivo
Assay [1] concerns MC38 tumor cells. The assay is described as follows: MC38 syngeneic mouse tumor model, PF-06873600 with checkpoint antibodies (Example 2). The note with it: for tumor growth inhibition (in words): MC38 model, day 27 post-treatment initiation; for CR % on day 27: complete response; for CR % on day 27 / TGI % on day 27: day 27, s.c. MC38 tumors in female C57/BL6 mice, doses as in Table 10; for TGI % on day 27: tumor growth inhibition. On the procedure: MC38 cells were obtained from American Type Culture Collection (ATCC) and cultured in Roswell Park Memorial Institute (RPMI1640) supplemented with 10% fetal bovine serum (FBS). All cells were maintained in a humidified incubator at 37° C. with 5% carbon dioxide (CO2). Female C57/BL6 mice were obtained from Jackson Laboratories at 8 weeks of age. To generate the syngeneic model, 0.5 million MC38 tumor cells were subcutaneously implanted into the right flank of female C57/BL6 mice. Tumor bearing mice were randomized into nine treatment groups based on average tumor sizes of approximately 70 mm^3 per group, on Day 9 post tumor cell implantation. Study groups included vehicle, 30 mg/kg PF-06873600 (CDK 2/4/6 inhibitor) twice daily by oral gavage, avelumab (anti-PD-L1 antibody, PF-06834635) administered by intraperitoneal (IP) injection, 10 mg/kg, combination of avelumab administered at 10 mg/kg with anti-OX40 antibody (PF-07201252) administered at 5 mg/kg by IP injection, combination of anti-PD-L1 antibody administered at 10 mg/kg with anti-4-1BB antibody (PF-07218859) administered at 3 mg/kg by IP injection, combination of anti-PD-L1 antibody as described above with PF-06873600 administered at 30mg/kg twice daily by oral gavage, combination of anti-PD-L1 antibody and anti-OX40 antibody as described above with PF-06873600 administered at 30 mg/kg twice daily by oral gavage, combination of anti-PD-L1 antibody with anti-4-1BB antibody as described above with PF-06873600 administered at 30mg/kg twice daily by oral gavage and combination of anti-PD-L1 antibody, anti-OX40 antibody and anti-41-BB antibody as described above with PF-06873600 administered at 30 mg/kg twice daily by oral gavage. All antibodies were administered as three doses; one every three days after the study initiation. All antibody formulations are phosphate buffered saline based while PF-06873600 was administered in a 0.5% methocel/Tween suspension.
Tumor volumes were measured three times a week. Tumor volume was calculated based on two-dimensional caliper measurement with cubic millimeter volume calculated using the formula (length×width2)×0.5. Mice were sacrificed when the tumor volumes reached 2000 mm^3, which was the survival endpoint for this study. Survival curves were plotted using GraphPad Prism 7 software. Statistical significance determined using the Holm-Sidak method, with alpha=0.05.

For assay [2], the system named is 4T1 tumor cells. The assay is described as follows: 4T1 syngeneic mouse tumor model, PF-06873600 with checkpoint antibodies (Example 7). Here is the method:
4T1 cells were obtained from American Type Culture Collection (ATCC) and cultured in Roswell Park Memorial Institute (RPMI1640) supplemented with 10% fetal bovine serum (FBS). All cells were maintained in a humidified incubator at 37° C. with 5% carbon dioxide (CO2). Female C57/BL6 mice were obtained from Jackson Laboratories at 8 weeks of age. To generate the syngeneic model, 30,000 4T1 tumor cells were subcutaneously implanted into the right flank of […]. Tumor bearing mice were randomized into four treatment groups based on average tumor sizes of approximately 70 mm^3 per group. Study groups included vehicle, 30 mg/kg PF-06873600 (CDK 2/4/6 inhibitor) twice daily by oral gavage, combination of 10 mg/kg anti-PD-1 antibody (PF-06937004) with 5 mg/kg anti-OX40 antibody (PF-07201252) and with 3 mg/kg anti-4-1BB antibody (PF-07218859) all administered by IP injection, and the combination of PF-06873600, anti-PD-1 antibody, anti-OX40 antibody and anti-41-BB antibody dosed as described in the cohorts above. […]
(§1) Tumor volumes were measured three times a week. Tumor volume was calculated based on two-dimensional caliper measurement with cubic millimeter volume calculated using the formula (length×width2)×0.5. […] Statistical significance determined using the Holm-Sidak method, with alpha=0.05.

The test system of assay [3] is MC38 tumor cells. The assay is described as follows: MC38 syngeneic mouse tumor model, palbociclib with checkpoint antibodies (Example 1). On the procedure:
MC38 cells were obtained from American Type Culture Collection (ATCC) and cultured in Roswell Park Memorial Institute (RPMI1640) supplemented with 10% fetal bovine serum (FBS). All cells were maintained in a humidified incubator at 37° C. with 5% carbon dioxide (CO2). Female C57/BL6 mice were obtained from Jackson Laboratories at 8 weeks of age. To generate the syngeneic model, 0.5 million MC38 tumor cells were subcutaneously implanted into the right flank of female C57/BL6 mice. Tumor bearing mice were randomized into four treatment groups based on average tumor sizes of approximately 70 mm^3 per group, on Day 9 post tumor cell implantation. […]
as §1

Consider `C[C@@]1(O)CCC[C@H]1n1c(=O)c(C(F)F)cc2cnc(NC3CCN(S(C)(=O)=O)CC3)nc21` [PF-06873600, 6-(difluoromethyl)-8-((1R,2R)-2-hydroxy-2-methylcyclopentyl)-2-(1-(methylsulfonyl)piperidin-4-ylamino)pyrido[2,3-d]pyrimidin-7(8H)-one], for which, in assay [1], the “tumor growth inhibition (in words)” value is listed as “did not significantly inhibit tumor growth”, the “CR % on day 27” value is 0% and the “TGI % on day 27” value is −7%. The “tumor growth inhibition (in words)” value in assay [2] (4T1 model, day 18 post-treatment initiation) is “significantly inhibited tumor growth”. The “TGI % on day 27” value in assay [2] (tumor growth inhibition, s.c. 4T1 tumors in female C57/BL6 mice, doses as in Table 16) came out at 66%.

For the molecule `CC(=O)c1c(C)c2cnc(Nc3ccc(N4CCNCC4)cn3)nc2n(C2CCCC2)c1=O` [palbociclib, 6-acetyl-8-cyclopentyl-5-methyl-2-(5-piperazin-1-yl-pyridin-2-ylamino)-8H-pyrido[2,3-d]pyrimidin-7-one], in assay [3] (MC38 model, day 27 post-treatment initiation), the “tumor growth inhibition (in words)” value is listed as “did not significantly inhibit tumor growth”. Moreover, the “TGI % on day 27” value in assay [3] (tumor growth inhibition, day 27, s.c. MC38 tumors in female C57/BL6 mice, doses as in Table 8) is recorded as 29%.

Regarding “PF-06834635: avelumab (anti-PD-L1 antibody, PF-06834635)”, in assay [1], the “tumor growth inhibition (in words)” value is on record as “did not significantly inhibit tumor growth”, the “CR % on day 27” value stood at 0% and the “TGI % on day 27” value was determined as 9%.
